# Results as given in patent publication US11739101B2, “Bifunctional degraders of hematopoietic progenitor kinase and therapeutic uses thereof” (Nurix Therapeutics, Inc., priority 2020, dated 2023).
# Target: T1, HPK1 (Homo sapiens, UniProt Q92918)
# T1 construct: A HiBiT tag was introduced by CRISPR on the N terminus of HPK1 in Jurkat cells; host or cells: Jurkat (ATCC TIB-152), monoclonal CRISPR HiBiT knock-in line
# Experiment: HPK1 Cellular HiBiT Degradation Assay
# Type: cell-based
# Settings: HiBiT-tagged HPK1 Jurkat cells, 24 hours, 10 uM to 0.1 nM; Dmax = 100 minus lowest % HPK1 remaining vs DMSO vehicle
# How it was run: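 Dmax is derived from four-parameter curves of % HPK1 remaining, as 100 minus the lowest value, normalized to DMSO-treated cells with parental Jurkat background subtracted. HiBiT-HPK1 knock-in Jurkat cells got compound for 24 hours (final 10 uM to 0.1 nM, 11 points) before lytic HiBiT luminescence. Cytotoxicity was checked on parallel CellTiter-Glo plates.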
# T1 sequence (Q92918 whole entry): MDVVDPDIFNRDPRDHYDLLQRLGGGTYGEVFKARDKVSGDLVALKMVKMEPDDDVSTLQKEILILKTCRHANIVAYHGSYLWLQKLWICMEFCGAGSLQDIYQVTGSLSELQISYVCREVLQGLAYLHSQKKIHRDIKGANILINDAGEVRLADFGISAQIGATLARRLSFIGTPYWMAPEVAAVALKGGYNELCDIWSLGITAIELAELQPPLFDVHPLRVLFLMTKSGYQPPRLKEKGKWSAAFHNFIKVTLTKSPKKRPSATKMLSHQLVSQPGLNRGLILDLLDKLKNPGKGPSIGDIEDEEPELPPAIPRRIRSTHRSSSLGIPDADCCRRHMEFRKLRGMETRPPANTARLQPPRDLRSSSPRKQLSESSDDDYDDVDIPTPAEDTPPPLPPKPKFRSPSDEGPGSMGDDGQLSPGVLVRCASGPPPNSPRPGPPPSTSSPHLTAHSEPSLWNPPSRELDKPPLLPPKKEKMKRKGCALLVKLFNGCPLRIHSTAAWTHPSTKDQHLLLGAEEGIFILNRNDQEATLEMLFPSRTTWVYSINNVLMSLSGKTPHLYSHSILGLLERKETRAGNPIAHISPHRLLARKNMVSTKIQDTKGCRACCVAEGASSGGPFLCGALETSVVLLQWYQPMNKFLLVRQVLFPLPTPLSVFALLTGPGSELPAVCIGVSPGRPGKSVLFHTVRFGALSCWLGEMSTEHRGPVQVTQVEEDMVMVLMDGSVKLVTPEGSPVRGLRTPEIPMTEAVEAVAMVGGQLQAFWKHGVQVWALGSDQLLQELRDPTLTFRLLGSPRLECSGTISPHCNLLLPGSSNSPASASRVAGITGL
row,Dmax [%],SMILES
1,45 to 65,"Cc1cc(F)c(Nc2nc(-c3ccc4c(c3)N([C@H]3C[C@@H](N5CCCCC5)C3)C(=O)C43CCN(C(=O)CCOCCOCCOCCOCCNc4cccc5c4C(=O)N(C4CCC(=O)NC4=O)C5=O)CC3)cc3ncn(C(C)C)c23)cc1C(=O)NC(C)C (stereo partly shown) [Example 2, 5-((6-(1′-(1-((2-(2,6-dioxopiperidin-3-yl)-1,3-dioxoisoindolin-4-yl)amino)-3,6,9,12-tetraoxapentadecan-15-oyl)-2-oxo-1-((1s,3s)-3-(piperidin-1-yl)cyclobutyl)spiro[indoline-3,4′-piperidin]-6-yl)-3-isopropyl-3H-imidazo[4,5-c]pyridin-4-yl)amino)-4-fluoro-N-isopropyl-2-methylbenzamide]"
2,> 65,"Cc1cc(F)c(Nc2nc(-c3ccc4c(c3)N([C@H]3C[C@@H](N5CCCCC5)C3)C(=O)C43CCN(C(=O)C4CCN(C(=O)[C@H]5CC[C@H](N(C)c6cccc7c6C(=O)N(C6CCC(=O)NC6=O)C7=O)CC5)CC4)CC3)cc3ncn(C(C)C)c23)cc1C(=O)NC(C)C (stereo partly drawn) [Example 66, 4-fluoro-2-methyl-5-{[6-(2-oxo-1′-{1-[(1R,4R)-4-({2-[2,6-dioxopiperidin-3-yl]-1,3-dioxo-2,3-dihydro-1H-isoindol-4-yl}(methyl)amino)cyclohexanecarbonyl]piperidine-4-carbonyl}-1-[(1s,3s)-3-(piperidin-1-yl)cyclobutyl]-1,2-dihydrospiro[indole-3,4′-piperidin]-6-yl)-3-(propan-2-yl)-3H-imidazo[4,5-c]pyridin-4-yl]amino}-N-(propan-2-yl)benzamide]"
3,> 65,"Cc1cc(F)c(Nc2nc(-c3ccc4c(c3)N([C@H]3C[C@@H](N5CCCCC5)C3)C(=O)C43CCN(C(=O)C4CCN(Cc5ccc(C(=O)NCCNc6cccc7c6C(=O)N(C6CCC(=O)NC6=O)C7=O)nc5)CC4)CC3)cc3ncn(C(C)C)c23)cc1C(=O)NC(C)C (stereo partly shown) [Example 89, N-(2-{[2-(2,6-dioxopiperidin-3-yl)-1,3-dioxoisoindol-4-yl]amino}ethyl)-5-[(4-{[6-(4-{[2-fluoro-5-(isopropylcarbamoyl)-4-methylphenyl]amino}-3-isopropylimidazo[4,5-c]pyridin-6-yl)-2-oxo-1-[(s,3s)-3-(piperidin-1-yl)cyclobutyl]spiro[indole-3,4′-piperidin]-1′-yl]carbonyl}piperidin-1-yl)methyl]pyridine-2-carboxamide]"
4,< 45,"Cc1cc(F)c(Nc2nc(-c3ccc4c(c3)N([C@H]3C[C@@H](N5CCCCC5)C3)C(=O)C43CCN(C(=O)C4CN(C(=O)C5CCN(c6ccc7c(c6)C(=O)N(C6CCC(=O)NC6=O)C7=O)CC5)C4)CC3)cc3ncn(C(C)C)c23)cc1C(=O)NC(C)C (stereo partly shown) [Example 39, 5-[(6-{1′-[1-(1-{2-[2,6-dioxopiperidin-3-yl]-1,3-dioxo-2,3-dihydro-1H-isoindol-5-yl}piperidine-4-carbonyl)azetidine-3-carbonyl]-2-oxo-1-[(1s,3s)-3-(piperidin-1-yl)cyclobutyl]-1,2-dihydrospiro[indole-3,4′-piperidin]-6-yl}-3-(propan-2-yl)-3H-imidazo[4,5-c]pyridin-4-yl)amino]-4-fluoro-2-methyl-N-(propan-2-yl)benzamide]"
5,45 to 65,"Cc1cc(F)c(Nc2nc(-c3ccc4c(c3)N([C@H]3C[C@@H](N5CCCCC5)C3)C(=O)C43CCN(C(=O)[C@H]4CC[C@H](C(=O)N5CCC(Nc6cccc7c6C(=O)N(C6CCC(=O)NC6=O)C7=O)CC5)CC4)CC3)cc3ncn(C(C)C)c23)cc1C(=O)NC(C)C (stereo partly drawn) [Example 51, 4-fluoro-2-methyl-5-[(6-{2-oxo-1′-[(R,4R)-4-[4-({2-[2,6-dioxopiperidin-3-yl]-1,3-dioxo-2,3-dihydro-1H-isoindol-4-yl}amino)piperidine-1-carbonyl]cyclohexanecarbonyl]-1-[(1s,3s)-3-(piperidin-1-yl)cyclobutyl]-1,2-dihydrospiro[indole-3,4′-piperidin]-6-yl}-3-(propan-2-yl)-3H-imidazo[4,5-c]pyridin-4-yl)amino]-N-(propan-2-yl)benzamide]"
6,45 to 65,"Cc1cc(F)c(Nc2nc(-c3ccc4c(c3)N([C@H]3C[C@@H](N5CCCCC5)C3)C(=O)C43CCN(C(=O)c4ccc(C(=O)N5CCC(Cc6cccc7c6C(=O)N(C6CCC(=O)NC6=O)C7=O)CC5)cc4)CC3)cc3ncn(C(C)C)c23)cc1C(=O)NC(C)C (stereo partly shown) [Example 77, 5-{[6-(1′-{4-[4-({2-[2,6-dioxopiperidin-3-yl]-1,3-dioxo-2,3-dihydro-1H-isoindol-4-yl}methyl)piperidine-1-carbonyl]benzoyl}-2-oxo-1-[(1s,3s)-3-(piperidin-1-yl)cyclobutyl]-1,2-dihydrospiro[indole-3,4′-piperidin]-6-yl)-3-(propan-2-yl)-3H-imidazo[4,5-c]pyridin-4-yl]amino}-4-fluoro-2-methyl-N-(propan-2-yl)benzamide]"
7,< 45,"Cc1cc(F)c(Nc2nc(-c3ccc4c(c3)N([C@H]3C[C@@H](N5CCCCC5)C3)C(=O)C43CCN(C(=O)CCN4CCC(CCCCC(=O)N[C@H](C(=O)N5C[C@H](O)C[C@H]5C(=O)N[C@@H](C)c5ccc(-c6scnc6C)cc5)C(C)(C)C)CC4)CC3)cc3ncn(C(C)C)c23)cc1C(=O)NC(C)C [Example 20, (2S,4R)-1-((S)-2-(5-(1-(3-(6-(4-((2-fluoro-5-(isopropylcarbamoyl)-4-methylphenyl)amino)-3-isopropyl-3H-imidazo[4,5-c]pyridin-6-yl)-2-oxo-1-((1s,3s)-3-(piperidin-1-yl)cyclobutyl)spiro[indoline-3,4′-piperidin]-1′-yl)-3-oxopropyl)piperidin-4-yl)pentanamido)-3,3-dimethylbutanoyl)-4-hydroxy-N—((S)-1-(4-(4-methylthiazol-5-yl)phenyl)ethyl)pyrrolidine-2-carboxamide]"
